Data reported in US4929635A, “New derivatives of 4-vinyl benzoic acid, process for their preparation and their uses in therapeutics and as ligands” (Laboratoires Chauvin-Blache, priority 1984, dated 1990).

Biological target: T1, cytosolic receptor of retinoic acid (C.R.A.B.P.) of rat testicles (Rattus norvegicus, UniProt P62966)
T1 construct: to obtain the cytosol; from tissue; host or cells: rat testicles, 105000×g cytosol
Assay: Affinity for the cytosolic receptor of retinoic acid (C.R.A.B.P.) of rat testicles: inhibition of specific linking of tritiated retinoic acid
Type: binding
Details: ligand 4 μM; tritiated retinoic acid 20 nM; rat testicle cytosol 2 mg/ml; 16 h at 4° C., pH 7.4; unmarked retinoic acid = 100% inhibition
Description: Affinity for the cytosolic receptor of retinoic acid (C.R.A.B.P.) of rat testicles
The affinity of the compounds of the formula I for the C.R.A.B.P. receptor is determined by measurement of the inhibition of the specific linking of tritiated retinoic acid (*AR) by the various compounds according to the method of ONG and CHYTIL (J. Biol. Chem., 1975, 250, 6113) modified:
The rat testicles thawed to 4° C. are placed in Tris-HCl 50 mM, DTE 2 mM buffer, pH 7.4, then ground in a Potter Teflon/glass grinder (three times at 800 rpm). The ground product is centrifuged at 4000×g for 10 min at 4° C.
The supernatant liquor is then centrifuged for 60 min at 105000×g at 4° C. to obtain the cytosol. The final protein concentration of the cytosol is adjusted to 2 mg/ml.
200 μl of cytosol are incubated for 16 h at 4° C. in the presence of tritiated retinoic acid 20 nM (specific activity: 30 Ci/mmole), in the presence of the ligands to be tested at the concentration of 4 μM.
The incubations are followed by treatment with charcoal-dextran (1%-0.0025%) for 30 min at 4° C. The bound radioactivity is determined by counting in liquid scintillation.

T1 sequence (P62966 whole entry): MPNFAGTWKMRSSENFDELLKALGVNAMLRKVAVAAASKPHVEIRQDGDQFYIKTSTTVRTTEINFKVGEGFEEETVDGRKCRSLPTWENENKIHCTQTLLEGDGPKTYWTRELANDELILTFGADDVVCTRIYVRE

Going from C/C(=C\c1ccc(C(=O)O)cc1)c1cccc(C(C)C)c1 [Compound 12] to C/C(=C\c1ccc(C(=O)O)cc1)c1ccc(C(C)C)cc1 [Compound 3, (E)-4-[2-(4-isopropylphenyl)propenyl]benzoic acid], the inhibition at 4 µM rises from 67.5% to 68.5%.

Going from C/C(=C\c1ccc(C(=O)O)cc1)c1ccccc1 [Compound 1] to C/C(=C\c1ccc(C(=O)O)cc1)c1cccs1 [Compound 9], the inhibition at 4 µM falls from 18.9% to 18.5%.

Compared with C/C(=C\c1ccc(C(=O)O)cc1)c1cc(C(C)C)cs1 [Compound 13], C/C(=C\c1ccc(C(=O)O)cc1)c1ccc(C(C)C)s1 [Compound 14] is higher in inhibition at 4 µM: 72.5% for the first, 75% for the second.

C/C(=C\c1ccc(C(=O)N2CCN(C)CC2)cc1)c1ccc(C(C)C)cc1 [Compound 11] showed an inhibition at 4 µM of 27.5%.
